Source: ChEMBL document CHEMBL1201862, “PubChem BioAssay data set” (2004)
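How tested: cells in 96-well plates exposed to compound for 48 hours at five concentrations. GI50 marks 50% less growth.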 Calls of active or inactive are those of the source. Cut-off read from the data, not from the text of the source: active = GI50 up to about 1.1 µM and inactive = higher.

What was measured:
Assay in all cases: NCI tumour cell line growth inhibition, 48 h
SW-620 = test system: SW-620
HCC 2998 = test system: HCC 2998
786-0 = test system: 786-0
IGROV-1 = test system: IGROV-1
HOP-62 = test system: HOP-62
XF498 = test system: XF498
DMS-273 = test system: DMS-273
Malme-3M = test system: Malme-3M
SN12C = test system: SN12C
NCI-H460 = test system: NCI-H460
SNB-75 = test system: SNB-75
DMS-114 = test system: DMS-114
OVCAR-5 = test system: OVCAR-5
HOP-92 = test system: HOP-92
NCI-H226 = test system: NCI-H226
TK-10 = test system: TK-10
UACC-257 = test system: UACC-257
SK-MEL-28 = test system: SK-MEL-28
A549 = test system: A549
LXFL 529 = test system: LXFL 529
COLO 205 = test system: COLO 205
SF-295 = test system: SF-295
A498 = test system: A498
ACHN = test system: ACHN
OVCAR-8 = test system: OVCAR-8
KM-20L2 = test system: KM-20L2
HCT-116 = test system: HCT-116
EKVX = test system: EKVX
MOLT-4 = test system: MOLT-4
HOP-18 = test system: HOP-18
SK-MEL-2 = test system: SK-MEL-2
UACC-62 = test system: UACC-62
SF-268 = test system: SF-268
U-251 = test system: U-251
DLD-1 = test system: DLD-1
HL-60 = test system: HL-60
UO-31 = test system: UO-31
SNB-19 = test system: SNB-19
M14 = test system: M14
CCRF-CEM = test system: CCRF-CEM
SR = test system: SR
OVCAR-4 = test system: OVCAR-4
SF-539 = test system: SF-539
M19-MEL = test system: M19-MEL
NCI-H23 = test system: NCI-H23
RXF 393 = test system: RXF 393
SK-OV-3 = test system: SK-OV-3
LOX IMVI = test system: LOX IMVI
HCT-15 = test system: HCT-15
CAKI-1 = test system: CAKI-1
K562 = test system: K562
HT-29 = test system: HT-29
KM12 = test system: KM12
OVCAR-3 = test system: OVCAR-3
NCI-H522 = test system: NCI-H522
SNB-78 = test system: SNB-78
RPMI-8226 = test system: RPMI-8226
SK-MEL-5 = test system: SK-MEL-5
MCF7 = test system: MCF7
NCI/ADR-RES = test system: NCI/ADR-RES

Q: With `CC1(C)OC(C(N)=O)=C(C(N)=O)O1` as the compound, how does the GI50 (SW-620) read?
A: > 100 µM (inactive)

Q: What about the GI50 (HCC 2998) of the same compound?
A: > 100 µM (inactive)

Q: And the GI50 (786-0)?
A: > 100 µM (inactive)

Q: And the GI50 (IGROV-1)?
A: > 100 µM (inactive)

Q: What about the GI50 (HOP-62) of the same compound?
A: > 100 µM (inactive)

Q: And the GI50 (XF498)?
A: > 100 µM (inactive)

Q: And the GI50 (DMS-273)?
A: > 100 µM (inactive)

Q: What about the GI50 (Malme-3M) of the same compound?
A: > 100 µM (inactive)

Q: And the GI50 (SN12C)?
A: > 100 µM (inactive)

Q: And the GI50 (NCI-H460)?
A: > 100 µM (inactive)

Q: What about the GI50 (SNB-75) of the same compound?
A: > 100 µM (inactive)

Q: And the GI50 (DMS-114)?
A: > 100 µM (inactive)

Q: What about the GI50 (OVCAR-5) of the same compound?
A: > 100 µM (inactive)

Q: What about the GI50 (HOP-92) of the same compound?
A: > 100 µM (inactive)

Q: And the GI50 (NCI-H226)?
A: > 100 µM (inactive)

Q: And the GI50 (TK-10)?
A: > 100 µM (inactive)

Q: And the GI50 (UACC-257)?
A: > 100 µM (inactive)

Q: What about the GI50 (SK-MEL-28) of the same compound?
A: > 100 µM (inactive)

Q: And the GI50 (A549)?
A: > 100 µM (inactive)

Q: And the GI50 (LXFL 529)?
A: > 100 µM (inactive)

Q: What about the GI50 (COLO 205) of the same compound?
A: > 100 µM (inactive)

Q: What about the GI50 (SF-295) of the same compound?
A: > 100 µM (inactive)

Q: What about the GI50 (A498) of the same compound?
A: > 100 µM (inactive)

Q: And the GI50 (ACHN)?
A: > 100 µM (inactive)

Q: What about the GI50 (OVCAR-8) of the same compound?
A: > 100 µM (inactive)

Q: And the GI50 (KM-20L2)?
A: > 100 µM (inactive)

Q: What about the GI50 (HCT-116) of the same compound?
A: > 100 µM (inactive)

Q: And the GI50 (EKVX)?
A: > 100 µM (inactive)

Q: What about the GI50 (MOLT-4) of the same compound?
A: > 100 µM (inactive)

Q: What about the GI50 (HOP-18) of the same compound?
A: > 100 µM (inactive)

Q: And the GI50 (SK-MEL-2)?
A: > 100 µM (inactive)

Q: And the GI50 (UACC-62)?
A: > 100 µM (inactive)

Q: And the GI50 (SF-268)?
A: > 100 µM (inactive)

Q: What about the GI50 (U-251) of the same compound?
A: > 100 µM (inactive)

Q: And the GI50 (DLD-1)?
A: > 100 µM (inactive)

Q: What about the GI50 (HL-60) of the same compound?
A: > 100 µM (inactive)

Q: And the GI50 (UO-31)?
A: > 100 µM (inactive)

Q: What about the GI50 (SNB-19) of the same compound?
A: > 100 µM (inactive)

Q: What about the GI50 (M14) of the same compound?
A: > 100 µM (inactive)

Q: And the GI50 (CCRF-CEM)?
A: > 100 µM (inactive)

Q: What about the GI50 (SR) of the same compound?
A: 6.53 µM (inactive)

Q: What about the GI50 (OVCAR-4) of the same compound?
A: > 100 µM (inactive)

Q: And the GI50 (SF-539)?
A: > 100 µM (inactive)

Q: What about the GI50 (M19-MEL) of the same compound?
A: > 100 µM (inactive)

Q: What about the GI50 (NCI-H23) of the same compound?
A: > 100 µM (inactive)

Q: And the GI50 (RXF 393)?
A: > 100 µM (inactive)

Q: What about the GI50 (SK-OV-3) of the same compound?
A: > 100 µM (inactive)

Q: What about the GI50 (LOX IMVI) of the same compound?
A: > 100 µM (inactive)

Q: What about the GI50 (HCT-15) of the same compound?
A: > 100 µM

Q: What about the GI50 (CAKI-1) of the same compound?
A: > 100 µM (inactive)

Q: What about the GI50 (K562) of the same compound?
A: > 100 µM (inactive)

Q: And the GI50 (HT-29)?
A: > 100 µM (inactive)

Q: What about the GI50 (KM12) of the same compound?
A: > 100 µM (inactive)

Q: What about the GI50 (OVCAR-3) of the same compound?
A: > 100 µM (inactive)

Q: And the GI50 (NCI-H522)?
A: > 100 µM (inactive)

Q: How did the GI50 (SW-620) turn out when `CN(C)CCNc1c([N+](=O)[O-])cc2c3c(cccc13)C(=O)N(CCN(C)C)C2=O` was run?
A: 0.593 µM (active)

Q: And the GI50 (HCC 2998)?
A: 1.53 µM (inactive)

Q: And the GI50 (IGROV-1)?
A: 1.73 µM (inactive)

Q: And the GI50 (HOP-62)?
A: 2.03 µM (inactive)

Q: What about the GI50 (XF498) of the same compound?
A: 1.55 µM (inactive)

Q: And the GI50 (DMS-273)?
A: 1.07 µM (active)

Q: And the GI50 (Malme-3M)?
A: 0.635 µM (active)

Q: And the GI50 (SN12C)?
A: 1.46 µM (inactive)

Q: What about the GI50 (NCI-H460) of the same compound?
A: 0.653 µM (active)

Q: And the GI50 (SNB-75)?
A: 1.7 µM (inactive)

Q: What about the GI50 (DMS-114) of the same compound?
A: 1.27 µM (inactive)

Q: And the GI50 (OVCAR-5)?
A: 2.03 µM (inactive)

Q: And the GI50 (HOP-92)?
A: 0.587 µM (active)

Q: What about the GI50 (NCI-H226) of the same compound?
A: > 100 µM (inactive)

Q: What about the GI50 (SNB-78) of the same compound?
A: 1.61 µM (inactive)

Q: And the GI50 (RPMI-8226)?
A: 2.33 µM (inactive)

Q: And the GI50 (UACC-257)?
A: 2.08 µM (inactive)

Q: What about the GI50 (SK-MEL-28) of the same compound?
A: 1.67 µM (inactive)

Q: What about the GI50 (A549) of the same compound?
A: 1.84 µM (inactive)

Q: What about the GI50 (COLO 205) of the same compound?
A: 1.11 µM (active)

Q: What about the GI50 (SF-295) of the same compound?
A: 1.24 µM (inactive)

Q: And the GI50 (A498)?
A: 1.67 µM (inactive)

Q: What about the GI50 (OVCAR-8) of the same compound?
A: 1.05 µM (active)

Q: What about the GI50 (KM-20L2) of the same compound?
A: 1.21 µM (inactive)

Q: And the GI50 (HCT-116)?
A: 0.552 µM (active)

Q: What about the GI50 (EKVX) of the same compound?
A: 2.15 µM (inactive)

Q: What about the GI50 (MOLT-4) of the same compound?
A: 0.476 µM (active)

Q: What about the GI50 (HOP-18) of the same compound?
A: 1.52 µM (inactive)

Q: And the GI50 (SK-MEL-5)?
A: 2.18 µM (inactive)

Q: What about the GI50 (SK-MEL-2) of the same compound?
A: 1.77 µM (inactive)

Q: What about the GI50 (UACC-62) of the same compound?
A: 1.75 µM (inactive)

Q: And the GI50 (SF-268)?
A: 2.2 µM (inactive)

Q: What about the GI50 (U-251) of the same compound?
A: 1.82 µM (inactive)

Q: What about the GI50 (DLD-1) of the same compound?
A: 1.52 µM (inactive)

Q: What about the GI50 (HL-60) of the same compound?
A: 1.68 µM (inactive)

Q: And the GI50 (UO-31)?
A: 1.58 µM (inactive)

Q: And the GI50 (SNB-19)?
A: 1.59 µM (inactive)

Q: And the GI50 (CCRF-CEM)?
A: 0.893 µM (active)

Q: What about the GI50 (OVCAR-4) of the same compound?
A: 0.807 µM (active)

Q: And the GI50 (SF-539)?
A: 2.16 µM (inactive)

Q: What about the GI50 (M19-MEL) of the same compound?
A: 1.6 µM (inactive)

Q: And the GI50 (NCI-H23)?
A: 1.78 µM (inactive)

Q: What about the GI50 (RXF 393) of the same compound?
A: 1.42 µM (inactive)

Q: And the GI50 (SK-OV-3)?
A: 1.76 µM (inactive)

Q: And the GI50 (LOX IMVI)?
A: 1.08 µM (active)

Q: And the GI50 (HCT-15)?
A: 1.7 µM

Q: What about the GI50 (CAKI-1) of the same compound?
A: 2.13 µM (inactive)

Q: And the GI50 (K562)?
A: 0.556 µM (active)

Q: What about the GI50 (HT-29) of the same compound?
A: 0.61 µM (active)

Q: What about the GI50 (MCF7) of the same compound?
A: 1.22 µM (inactive)

Q: What about the GI50 (NCI/ADR-RES) of the same compound?
A: 1.54 µM (inactive)

Q: And the GI50 (KM12)?
A: 8.18 µM (inactive)

Q: What about the GI50 (OVCAR-3) of the same compound?
A: 1.79 µM (inactive)

Q: And the GI50 (NCI-H522)?
A: 1.25 µM (inactive)
